PubChem BioAssay (NCI)
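Following 48 hours of exposure in 96-well plates, responses at five concentrations were used to interpolate endpoints linearly. TGI is the concentration that stops growth completely.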

What was measured:
Assay in all cases: inhibition of tumour cell growth, NCI panel, 48 h
[1] = test system: A498 renal
[2] = test system: SK-MEL-2 melanoma
[3] = test system: SK-OV-3 ovarian
[4] = test system: HCT-116 colon
[5] = test system: RPMI-8226 leukemia
[6] = test system: PC-3 prostate
[7] = test system: SK-MEL-28 melanoma
[8] = test system: MDA-MB-231 breast
[9] = test system: NCI/ADR-RES ovarian
[10] = test system: UO-31 renal
[11] = test system: MDA-MB-435
[12] = test system: HS 578T breast
[13] = test system: OVCAR-4 ovarian
[14] = test system: 786-0 renal
[15] = test system: U251 CNS
[16] = test system: SF-295 CNS
[17] = test system: NCI-H226 lung
[18] = test system: K-562 leukemia
[19] = test system: SF-268 CNS
[20] = test system: HOP-62 NSCLC
[21] = test system: MCF7 breast
[22] = test system: CCRF-CEM leukemia
[23] = test system: OVCAR-3 ovarian
[24] = test system: DU-145 prostate
[25] = test system: EKVX NSCLC
[26] = test system: MALME-3M melanoma
[27] = test system: HCT-15 colon
[28] = test system: COLO 205 colon
[29] = test system: SN12C renal
[30] = test system: KM12 colon
[31] = test system: IGROV1 ovarian
[32] = test system: SK-MEL-5 melanoma
[33] = test system: ACHN renal
[34] = test system: HOP-92 NSCLC
[35] = test system: MDA-N
[36] = test system: MOLT-4 leukemia
[37] = test system: SNB-19 CNS
[38] = test system: UACC-62 melanoma
[39] = test system: M14 melanoma
[40] = test system: SNB-75 CNS
[41] = test system: TK-10 renal
[42] = test system: LOX IMVI melanoma
[43] = test system: OVCAR-8 ovarian
[44] = test system: A549 NSCLC
[45] = test system: UACC-257 melanoma
[46] = test system: SW-620 colon
[47] = test system: HT29 colon
[48] = test system: NCI-H23 lung
[49] = test system: OVCAR-5 ovarian
[50] = test system: HL-60(TB) leukemia
[51] = test system: T-47D breast
[52] = test system: HCC-2998 colon
[53] = test system: SR leukemia
[54] = test system: SF-539 CNS
[55] = test system: NCI-H460 lung
[56] = test system: CAKI-1 renal
[57] = test system: RXF 393 renal
[58] = test system: NCI-H522 lung

Measured: TGI

O/N=C/[C@H]1COC2(CCCCC2)O1
not listed: [50] | [51] | [52] | [53] | [54] | [55] | [56] | [57] | [58]
> 100 µM: all other assays above

COc1ccc(C(=O)/C=C/c2ccc(OCCCCCCCCCCOc3ccc(/C=C/C(=O)c4ccc(OC)c(OC)c4)cc3)cc2)c(OC)c1
not listed: [1] | [23] | [26] | [34] | [42] | [48] | [58]
> 100 µM: all other assays above

CCOC(=O)c1c(-c2ccc(OC)cc2)c(C#N)c(=S)n(C2OC(CO)C(O)C(O)C2O)c1C (stereo not drawn)
not listed: [5] | [12] | [33] | [38] | [55]
> 100 µM: all other assays above
